Reference: paper PMC8438848 (Journal for Immunotherapy of Cancer, 2021)
Ends that are not written are not given here.

Tests used:
[1] = target: HLA-A03:01 (Homo sapiens, UniProt P04439); experiment: IC50 in vitro measurement, peptide exchange assay with fluorescence anisotropy
[2] = target: HLA-B27:05 (Homo sapiens, UniProt P01889, D138H/D201E/E176V/E204Q/G107R/H137Y/K202T/N104T/N87E/Q56L/Q94K/R106L/R155S/R180L/S101D/S121N/S48T/Y140D/Y33H/Y91C); experiment: as above; assay type: binding

## RLFLGLAIK [KIF2C^P13L]
[1]
  IC50: 237.4 ± 2 nM

## GRIAFSLKY [SYTL4^WT]
[2]
  IC50: 97.3 ± 2.1 nM

## KLILWRGLK [NCAPG2^P333L]
[1]
  IC50: 202.9 ± 1.03 nM

## RLFPGLAIK [KIF2C^WT]
[1]
  IC50: 146.2 ± 1.1 nM

## GRIAFFLKY [SYTL4^S363F]
[2]
  IC50: 214.7 ± 1.8 nM

## KPILWRGLK [NCAPG2^WT]
[1]
  IC50: 4490 nM
